Read-outs that look alike come from different tables or passages of the source.
Assay: adjuvant arthritis screen (Walz et al.), swelling of the non-injected left hind foot on Day 16
Format: in vivo, male inbred Lewis rats
Settings: Rattus norvegicus, 384 h, daily day -1 through day 15, read-out: Activity Percent Inhibition; for inhibition in vivo at 20 mg/kg: 20 mg./kg. po
Text: The adjuvant arthritis test described by Walz et al., Ann. Rheum. Dis., 30, 303 (1971) was selected as the method of choice for the determination of the extent of which the novel compounds of the present invention are therapeutically effective as anti-inflammatory agents. Adjuvant arthritis is a crippling deformity in rats resulting from diffuse connective tissue involvement. It is considered by some authorities to be the best available experimental animal model of human rheumatoid arthritis because of its strong clinical and pathological similarities to the human disease and because it can be effectively treated with known anti-arthritic drugs. In this test, lesions resembling those of human rheumatoid arthritis are induced by the injection of complete Freund's adjuvant into one hind leg of a rat. A vigorous inflammatory response occurs in the injected hind leg and reaches its greatest size in about four days. This primary response is followed by the development of a second inflammatory response, appearing about 12-16 days post-injection, that occurs in the uninjected hind leg. While the compounds of the invention are capable of inhibiting the degree of inflammation in both legs, the inhibition of swelling in the uninjected leg at 16 days is considered to be the more meaningful measure of antiarthritic activity.
The adjuvant arthritis screen as described by Walz et al. (Ann. Rheum. Dis., 30: 303 (1971), was used to evaluate the above prepared compounds.
The screen is conducted using male inbred Lewis rats weighing approximately 250 gm. The animals are dosed with drug beginning on day- 1 and continuing daily through day 15. On Day 0, the subplanter surface of the right hind paw is injected with 0.1cc of a 1% suspension of Mycobacterium butyricum (Freunds adjuvant) in Primol (Esso). The swelling of the non-injected left hind foot on Day 16, resulting from immune response to adjuvant, was determined for dosed animals and controls. The foot volume is measured by immersing the paw to the anatomical hairline into a mercury reservoir which is connected to a Statham pressure transducer and a recording device. The results are expressed as % inhibition calculated according to the following equation: [formula] The results obtained are as follows for [drawing 22] where Z is --N(CH3)2 and X is carbon: […]

SMILES	inhibition in vivo at 20 mg/kg	inhibition in vivo at 33 mg/kg (33 mg./kg. ip)	other results
Cc1cc2nc(NC(=O)c3cccc(C(F)(F)F)c3)n(CCCN3CCN(C)CC3)c2cc1C	22%	–	–
CN(C)CCCn1c(NC(=O)c2cccc(C(F)(F)F)c2)nc2ccccc21	–	21%	–
CN1CCN(CCCn2c(NC(=O)c3cccc(C(F)(F)F)c3)nc3cc(S(=O)(=O)N(C)C)ccc32)CC1	22%	–	–
CN1CCN(CCCn2c(NC(=O)c3ccc(Cl)c(Cl)c3)nc3cc(S(=O)(=O)N(C)C)ccc32)CC1	31%	–	–
CN1CCN(CCCn2c(NC(=O)c3cc(C(F)(F)F)cc(C(F)(F)F)c3)nc3ccccc32)CC1	32%	–	–
Cc1cc2nc(NC(=O)c3ccc(C(F)(F)F)cc3)n(CCCN3CCN(C)CC3)c2cc1C	29%	–	–
CN1CCN(CCCn2c(NC(=O)c3ccc(C(F)(F)F)cc3)nc3cc(S(=O)(=O)N(C)C)ccc32)CC1	34%	–	–
CN1CCN(CCCn2c(NC(=O)C34CC5CC(CC(C5)C3)C4)nc3ccccc32)CC1 [1-Adamantyl; H; H; drawing 24]	–	28%	–
CN(C)CCCn1c(NC(=O)c2ccccc2Cl)nc2ccccc21 [2-Chlorophenyl; H; H; Z = N(CH3)2]	–	15%	–
CN(C)CCCn1c(NC(=O)C=Cc2ccccc2Cl)nc2ccccc21 [2-Chlorostyryl; H; H; Z = N(CH3)2]	–	45%	–
O=C(Nc1nc2ccccc2n1CCCN1CCOCC1)c1ccccc1F [2-Fluorophenyl; H; H; drawing 23]	–	6%	–
CN1CCN(CCCn2c(NC(=O)c3ccco3)nc3ccccc32)CC1 [2-Furyl; H; H; drawing 24, 1-[3-(4-methyl-1-piperazinyl)propyl]-2-(2-furamido)-benzimidazole]	43%	–	–
Cc1cc2nc(NC(=O)c3ccc(Cl)c(Cl)c3)n(CCCN3CCN(C)CC3)c2cc1C [3,4-Dichlorophenyl; CH3; CH3; drawing 24]	18%	–	–
Cc1ccc2nc(NC(=O)c3ccc(Cl)c(Cl)c3)n(CCCN3CCN(C)CC3)c2c1 [3,4-Dichlorophenyl; H; CH3; drawing 24]	22%	–	–
CN(C)CCCn1c(NC(=O)c2ccc(Cl)c(Cl)c2)nc2ccccc21 [3,4-Dichlorophenyl; H; H; Z = N(CH3)2]	–	67%	inhibition in vivo at 10 mg/kg (10 mg./kg. po): 13%
CN1CCN(CCCn2c(NC(=O)c3ccc(Cl)c(Cl)c3)nc3ccccc32)CC1 [3,4-Dichlorophenyl; H; H; drawing 24, 1-[3-(4-methyl-1-piperazinyl)propyl]-2-(3,4-dichlorobenzamido)benzimidazole]	–	61%	inhibition in vivo at 10 mg/kg (10 mg./kg. po): 32%
CN1CCN(CCCn2c(NC(=O)c3ccc(Cl)c(Cl)c3)nc3cccnc32)CC1 [3,4-Dichlorophenyl; H; H; drawing 25, 2-(3,4-dichlorobenzamido)-3-[4-(methyl-1-piperazino)-propyl]imidazo[4,5-b]pyridine]	41%	–	inhibition in vivo at 10 mg/kg (10 mg./kg. po): 27%
O=C(Nc1nc2ccccc2n1CCCN1CCCCC1)c1ccc(Cl)c(Cl)c1 [3,4-Dichlorophenyl; H; H; drawing 26]	–	25%	–
O=C(Nc1nc2ccccc2n1CCCN1CCN(Cc2ccccc2)CC1)c1ccc(Cl)c(Cl)c1 [3,4-Dichlorophenyl; H; H; drawing 27]	–	–	inhibition in vivo at 10 mg/kg (10 mg./kg. ip): 19%
COc1ccc2c(c1)nc(NC(=O)c1ccc(Cl)c(Cl)c1)n2CCCN1CCN(C)CC1 [3,4-Dichlorophenyl; OCH3; H; drawing 24, 1-[3-(4-methyl-1-piperazinyl)propyl]-2-(3,4-dichlorobenzamido)-5-methoxybenzimidazole]	–	–	inhibition in vivo at 10 mg/kg (10 mg./kg. po): 35%
CN1CCN(CCCn2c(NC(=O)c3cc(Cl)cc(Cl)c3)nc3ccccc32)CC1 [3,5-Dichlorophenyl; H; H; drawing 24]	–	31%	–
CN1CCN(CCCn2c(NC(=O)c3cccc(Cl)c3)nc3cc(C(F)(F)F)ccc32)CC1 [3-Chlorophenyl; CF3; H; drawing 24, 1-[3-(4-methyl-1-piperazinyl)propyl]-2-(3-chlorobenzamido)-5-trifluoromethylbenzimidazole]	45%	73%	–
Cc1ccc2c(c1)nc(NC(=O)c1cccc(Cl)c1)n2CCCN1CCN(C)CC1 [3-Chlorophenyl; CH3; H; drawing 24]	29%	–	–

SMILES	inhibition in vivo at 20 mg/kg	inhibition in vivo at 33 mg/kg (33 mg./kg. ip)	other results
CN1CCN(CCCn2c(NC(=O)c3cccc(Cl)c3)nc3cc(Cl)c(Cl)cc32)CC1 [3-Chlorophenyl; Cl; Cl; drawing 24]	–	66%	–
CN1CCN(CCCn2c(NC(=O)c3cccc(Cl)c3)nc3cc(Cl)ccc32)CC1 [3-Chlorophenyl; Cl; H; drawing 24]	–	66%	inhibition in vivo at 10 mg/kg (10 mg./kg. po): -5%
Cc1ccc2nc(NC(=O)c3cccc(Cl)c3)n(CCCN3CCN(C)CC3)c2c1 [3-Chlorophenyl; H; CH3; drawing 24]	–	66%	inhibition in vivo at 10 mg/kg (10 mg./kg. po): -5%
CN(C)CCCn1c(NC(=O)c2cccc(Cl)c2)nc2ccccc21 [3-Chlorophenyl; H; H; Z = N(CH3)2]	–	33%	–
O=C(Nc1nc2ccccc2n1CCCN1CCOCC1)c1cccc(Cl)c1 [3-Chlorophenyl; H; H; drawing 23, 1-[3-(N-morpholino)propyl]-2-(3-chlorobenzamido)benzimidazole]	–	–	inhibition in vivo at 100 mg/kg (100 mg./kg. po): 32%
CN1CCN(CCCn2c(NC(=O)c3cccc(Cl)c3)nc3ccccc32)CC1 [3-Chlorophenyl; H; H; drawing 24]	–	46%	–
CN1CCN(CCCn2c(NC(=O)c3cccc(Cl)c3)nc3cccnc32)CC1 [3-Chlorophenyl; H; H; drawing 25]	26%	–	–
O=C(Nc1nc2ccccc2n1CCCN1CCCCC1)c1cccc(Cl)c1 [3-Chlorophenyl; H; H; drawing 26]	–	34%	–
COc1ccc2c(c1)nc(NC(=O)c1cccc(Cl)c1)n2CCCN1CCN(C)CC1 [3-Chlorophenyl; OCH3; H; drawing 24]	–	59%	inhibition in vivo at 10 mg/kg (10 mg./kg. po): -1%
CN1CCN(CCCn2c(NC(=O)c3cccc(Cl)c3)nc3cc(S(=O)(=O)N(C)C)ccc32)CC1 [3-Chlorophenyl; SO2 N(CH3)2; H; drawing 24, 1-[3-(4-methyl-1-piperazinyl)propyl]-2-(3-chlorobenzamido)-5-(N,N-dimethylsulfonamido)benzimidazole]	–	–	inhibition in vivo at 10 mg/kg (10 mg./kg. po): 35%; inhibition in vivo at 33 mg/kg (33 mg./kg. po): 54%
CN1CCN(CCCn2c(NC(=O)c3cccc(F)c3)nc3ccccc32)CC1 [3-Fluorophenyl; H; H; drawing 24]	–	34%	–
O=C(Nc1nc2ccccc2n1CCCN1CCCCC1)c1cccc(F)c1 [3-Fluorophenyl; H; H; drawing 26]	–	27%	–
COc1cccc(C(=O)Nc2nc3cc(C(F)(F)F)ccc3n2CCCN2CCN(C)CC2)c1 [3-Methoxyphenyl; CF3; H; drawing 24]	–	46%	–
COc1cccc(C(=O)Nc2nc3cc(C)ccc3n2CCCN2CCN(C)CC2)c1 [3-Methoxyphenyl; CH3; H; drawing 24, 1-[3-(4-methyl-1-piperazinyl)propyl]-2-(3-methoxybenzamido)-5-methylbenzimidazole]	37%	–	–
COc1cccc(C(=O)Nc2nc3cc(Cl)ccc3n2CCCN2CCN(C)CC2)c1 [3-Methoxyphenyl; Cl; H; drawing 24]	–	17%	–
COc1cccc(C(=O)Nc2nc3ccc(C)cc3n2CCCN2CCN(C)CC2)c1 [3-Methoxyphenyl; H; CH3; drawing 24, 1-[3-(4-methyl-1-piperazinyl)propyl]-2-(3-methoxybenzamido)-6-methylbenzimidazole]	44%	–	–
COc1cccc(C(=O)Nc2nc3ccccc3n2CCCN(C)C)c1 [3-Methoxyphenyl; H; H; Z = N(CH3)2]	–	21%	–
COc1cccc(C(=O)Nc2nc3ccccc3n2CCCN2CCOCC2)c1 [3-Methoxyphenyl; H; H; drawing 23]	–	29%	–
COc1cccc(C(=O)Nc2nc3ccccc3n2CCCN2CCN(C)CC2)c1 [3-Methoxyphenyl; H; H; drawing 24]	–	26%	–
COc1cccc(C(=O)Nc2nc3cccnc3n2CCCN2CCN(C)CC2)c1 [3-Methoxyphenyl; H; H; drawing 25]	25%	–	–
COc1cccc(C(=O)Nc2nc3ccccc3n2CCCN2CCCCC2)c1 [3-Methoxyphenyl; H; H; drawing 26]	–	52%	–
COc1cccc(C(=O)Nc2nc3cc(OC)ccc3n2CCCN2CCN(C)CC2)c1 [3-Methoxyphenyl; OCH3; H; drawing 24]	–	43%	–
